Test results: the supplement of paper PMC10307832

Key:
Experiment in all cases: relative viability (nuclei count vs DMSO), 5 days (fraction); higher = more cells survive
UMC-11 = test system: UMC-11
In short: (§1)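 Each reported value is a median over duplicate plates. It expresses relative viability: treated-well nuclei count divided by vehicle-well nuclei count. Lung cancer cell lines in 1536-well plates were dosed by pin tool a day after seeding, alone with one drug or with a fixed anchor-drug dose plus five library-drug doses (not always all listed) in √10 steps, and nuclei were counted after 5 days.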

LU99A = test system: LU99A
In short: as §1

COR-L23 = test system: COR-L23
In short: as §1

HOP-62 = test system: HOP-62
In short: as §1

NCI-H1355 = test system: NCI-H1355
In short: as §1

NCI-H838 = test system: NCI-H838
In short: as §1

ABC-1 = test system: ABC-1
In short: as §1

NCI-H1993 = test system: NCI-H1993
In short: as §1

LC-2-ad = test system: LC-2-ad
In short: as §1

HARA = test system: HARA
In short: as §1

NCI-H2347 = test system: NCI-H2347
In short: as §1

Compound `COc1cc2nccc(Oc3ccc(NC(=O)Nc4cc(C)on4)c(Cl)c3)c2cc1OC` [Tivozanib] + Nc1ncn([C@H]2C[C@H](O)[C@@H](CO)O2)c(=O)n1 [Decitabine] (partner 2 µM) has a relative viability (UMC-11; first compound 0.005 µM) of 0.59, a relative viability (UMC-11; first compound 0.01581 µM) of 0.595 and a relative viability (UMC-11; first compound 0.05 µM) of 0.657. The relative viability (UMC-11; first compound 0.1581 µM) was 0.478, the relative viability (UMC-11; first compound 0.5 µM) was 0.425 and the relative viability (LU99A; first compound 0.005 µM) was 1.04. It also gave a relative viability (LU99A; first compound 0.01581 µM) of 0.769, a relative viability (LU99A; first compound 0.05 µM) of 0.894 and a relative viability (LU99A; first compound 0.1581 µM) of 0.679. The relative viability (LU99A; first compound 0.5 µM) was 0.758, the relative viability (COR-L23; first compound 0.005 µM) was 0.391 and the relative viability (COR-L23; first compound 0.01581 µM) was 0.398. For the same compound, the relative viability (COR-L23; first compound 0.05 µM) was 0.403, the relative viability (COR-L23; first compound 0.1581 µM) was 0.317 and the relative viability (COR-L23; first compound 0.5 µM) was 0.372. The relative viability (HOP-62; first compound 0.005 µM) was 0.247, the relative viability (HOP-62; first compound 0.01581 µM) was 0.187 and the relative viability (HOP-62; first compound 0.05 µM) was 0.2. The relative viability (HOP-62; first compound 0.1581 µM) was 0.256, the relative viability (HOP-62; first compound 0.5 µM) was 0.223 and the relative viability (NCI-H1355; first compound 0.005 µM) was 0.318. The relative viability (NCI-H1355; first compound 0.01581 µM) was 0.314, the relative viability (NCI-H1355; first compound 0.05 µM) was 0.334 and the relative viability (NCI-H1355; first compound 0.1581 µM) was 0.333. It also gave a relative viability (NCI-H1355; first compound 0.5 µM) of 0.363, a relative viability (NCI-H838; first compound 0.005 µM) of 0.431 and a relative viability (NCI-H838; first compound 0.01581 µM) of 0.499. It also gave a relative viability (NCI-H838; first compound 0.05 µM) of 0.446, a relative viability (NCI-H838; first compound 0.1581 µM) of 0.482 and a relative viability (NCI-H838; first compound 0.5 µM) of 0.428. The relative viability (ABC-1; first compound 0.005 µM) was 0.986, the relative viability (ABC-1; first compound 0.01581 µM) was 1.01 and the relative viability (ABC-1; first compound 0.05 µM) was 1.15. The relative viability (ABC-1; first compound 0.1581 µM) was 0.868, the relative viability (ABC-1; first compound 0.5 µM) was 0.694 and the relative viability (NCI-H1993; first compound 0.005 µM) was 0.658. It also gave a relative viability (NCI-H1993; first compound 0.01581 µM) of 0.595, a relative viability (NCI-H1993; first compound 0.05 µM) of 0.581 and a relative viability (NCI-H1993; first compound 0.1581 µM) of 0.469. For the same compound, the relative viability (NCI-H1993; first compound 0.5 µM) was 0.592, the relative viability (LC-2-ad; first compound 0.005 µM) was 0.835 and the relative viability (LC-2-ad; first compound 0.01581 µM) was 0.681. It also gave a relative viability (LC-2-ad; first compound 0.05 µM) of 0.77, a relative viability (LC-2-ad; first compound 0.1581 µM) of 0.58 and a relative viability (LC-2-ad; first compound 0.5 µM) of 0.57. For the same compound, the relative viability (HARA; first compound 0.005 µM) was 0.469, the relative viability (HARA; first compound 0.01581 µM) was 0.571 and the relative viability (HARA; first compound 0.05 µM) was 0.59. The relative viability (HARA; first compound 0.1581 µM) was 0.652, the relative viability (HARA; first compound 0.5 µM) was 0.793 and the relative viability (NCI-H2347; first compound 0.005 µM) was 0.569. For the same compound, the relative viability (NCI-H2347; first compound 0.01581 µM) was 0.594, the relative viability (NCI-H2347; first compound 0.05 µM) was 0.62 and the relative viability (NCI-H2347; first compound 0.1581 µM) was 0.57. The relative viability (NCI-H2347; first compound 0.5 µM) was 0.659.
